In patent US10174006B2, “Topical aqueous ophthalmic compositions containing a 1H-indole-1-carboxamide derivative and use thereof for treatment of ophthalmic disease” (Novartis AG, priority 2013, dated 2019):
In brackets after ≈: the same amount, converted by molar mass. Read-outs that look alike come from different tables or passages of the source.

Tests used:
[1] = Equilibrium solubility in HPβCD or HPγCD in acetate (first Table I); assay type: physicochemical; settings: for solubility at 3 day: thermodynamic from solid, read-out: 1H-indole-1-carboxamide Solubility
Text: Hydroxypropyl-γ-cyclodextrin is preferred for dissolution of the 1H-indole-1-carboxamide.

[2] = Solubility in 5% HP-β-CD at pH 4.5 versus pH 7 (Table II); assay type: physicochemical; settings: for Solubility Enhancement (fold): compared to intrinsic solubility at pH 7
Text: Thus, depending upon the type of composition, the desired pH of the composition may be different. For compositions that include the cyclodextrin derivative, particularly the β-cyclodextrin derivative, γ-cyclodextrin derivative or combination thereof, and even more typically hydroxypropy-β-cyclodextrin, hydroxypropyl-γ-cyclodextrin or a combination thereof, the pH is preferably relatively low. The relatively low pH is typically at least 3.0, more typically at least 4.0 and even more typically at least 4.3, but is typically no greater than 5.5, more typically no greater than 5.0 and even more typically no greater than 4.7. It is also preferable that the pH of the composition be at least 4.0 but no greater than 5.0 and more preferably at least 4.3 but no greater than 4.7. Such compositions will typically be solutions in which the 1H-indole-1-carboxamide is dissolved.

[3] = Solubility in 8% HP-γ-CD in acetate buffer with different pH adjustment agents (Table III); assay type: physicochemical
[4] = Ocular tissue and plasma PK after single unilateral topical dose; assay type: in vivo, pigmented NZW×NZR rabbits; settings: pigmented NZW×NZR, rabbit, single unilateral 30 μL dose at 0.5%, 1% and 2%
Method: A single unilateral dose (30 μL) of a preferred ophthalmic suspension composition (i.e., suspension C-2 in Example 3 below) of the present invention was dosed onto the right (OD) eye of pigmented NZW×NZR rabbits at 0.5%, 1%, and 2% N-(1-methyl-5-(trifluoromethyl)-1H-pyrazol-3-yl)-5-((6-((methylamino)methyl)pyrimidin-4-yl)oxy)-1H-indole-1-carboxamide.

[5] = Ocular tissue and plasma PK after repeated t.i.d. monocular dosing for 7 days; assay type: in vivo, pigmented rabbits; settings: 2% t.i.d. 7 days
Method: In the contralateral undosed eyes of the 2% t.i.d treatment group, N-(1-methyl-5-(trifluoromethyl)-1H-pyrazol-3-yl)-5-((6-((methylamino)methyl)pyrimidin-4-yl)oxy)-1H-indole-1-carboxamide exposure was lower with the AUClast values of 1260 ng*h/g in cornea, 293000 ng*h/g in RPE/choroid and 3640 ng*h/g in retina.
PK parameters of 1H-indole-1-carboxamide in ocular tissues and plasma following repeated t.i.d. monocular OD dosing for 7 days of 2% N-(1-methyl-5-(trifluoromethyl)-1H-pyrazol-3-yl)-5-((6-((methylamino)methyl)pyrimidin-4-yl)oxy)-1H-indole-1-carboxamide formulation in pigmented rabbits employing suspension C-2 in Table B below.

[6] = Zeta potential of LHA510 particles with additives; assay type: physicochemical; settings: dispersant deionized water
Method: It was determined that NaCMC unexpectedly provide the 1H-indole-1-carboxamide with desired Zeta Potential. In particular, NaCMC creates repulsive forces between the particles of 1H-indole-1-carboxamide.

[7] = Equilibrium solubility in HPβCD or HPγCD in acetate (first Table I); assay type: physicochemical; settings: for solubility at 3 day: thermodynamic from solid, read-out: 1H-indole-1-carboxamide Solubility; remark: listed apart in the source
[8] = NZW×NZR (pigmented), rabbit, RPE/choroid of the dosed eye (OD), topical or ocular, 2 % formulation, RPE/Choroid OD (dosed eye)
[9] = NZW×NZR (pigmented), rabbit, cornea of the dosed (OD) eye, topical or ocular, Cornea OD (dosed eye)
[10] = NZW×NZR (pigmented), rabbit, cornea of the undosed (OS) eye, topical or ocular, Cornea OS (undosed eye)
[11] = pigmented NZW×NZR, rabbit, RPE/choroid of the undosed (OS) eye, topical or ocular, RPE/Choroid OS (undosed eye)
[12] = pigmented NZW×NZR, rabbit, retina of the dosed (OD) eye, topical or ocular, Retina OD (dosed eye)
[13] = pigmented NZW×NZR, rabbit, retina of the undosed (OS) eye, topical or ocular, Retina OS (undosed eye)

In the case of `CNCc1cc(Oc2ccc3c(ccn3C(=O)Nc3cc(C(F)(F)F)n(C)n3)c2)ncn1` [LHA510, N-(1-methyl-5-(trifluoromethyl)-1H-pyrazol-3-yl)-5-((6-((methylamino)methyl)pyrimidin-4-yl)oxy)-1H-indole-1-carboxamide], the “1H-indole-1-carboxamide Solubility” value ([1]; 1% HPγCD in Acetate, pH 4.607, equilibrium solubility at day 3) is reported as 9.09 mg/mL, the “1H-indole-1-carboxamide Solubility” value ([1]; 2.5% HPγCD in Acetate, pH 4.555, equilibrium solubility at day 3) is reported as 14.69 mg/mL and the solubility at 3 day ([1]; 2.5% HPγCD in acetate, pH 4.555, aqueous with cosolvent or surfactant or cyclodextrin, 2.5% HPγCD in Acetate, pH 4.555, equilibrium solubility at day 3) is reported as 14.7 mg/mL (≈ 33.1 mM). For the same compound, the “1H-indole-1-carboxamide Solubility” value ([1]; 5% HPγCD in Acetate, pH 4.505, equilibrium solubility at day 3) was 22.34 mg/mL, the solubility at 3 day ([1]; 5% HPγCD in acetate, pH 4.505, aqueous with cosolvent or surfactant or cyclodextrin, 5% HPγCD in Acetate, pH 4.505, equilibrium solubility at day 3) was 21.9 mg/mL (≈ 49.1 mM) and the “1H-indole-1-carboxamide Solubility” value ([1]; 8% HPγCD in Acetate, pH 4.580, equilibrium solubility at day 3) was 30.60 mg/mL. It also gave a solubility at 3 day ([1]; 10% HPγCD in acetate, pH 4.668, aqueous with cosolvent or surfactant or cyclodextrin, 10% HPγCD in Acetate, pH 4.668, equilibrium solubility at day 3) of 34.3 mg/mL (≈ 77 mM), a solubility ([2]; 5% HP-β-CD in acetate buffer, aqueous with cosolvent or surfactant or cyclodextrin, 5% HP-β-CD/Acetate buffer/pH 4.5, final pH 4.64, read-out: 1H-indole-1-carboxamide Solubility) of 11.7 mg/mL and a solubility ([2]; 5% HP-β-CD in phosphate buffer, aqueous with cosolvent or surfactant or cyclodextrin, 5% HP-β-CD/Phosphate buffer/pH 7, final pH 7.06, read-out: 1H-indole-1-carboxamide Solubility) of 1.01 mg/mL. For the same compound, the “Solubility Enhancement (fold)” value ([2]; 5% HP-β-CD/Acetate buffer/pH 4.5) was 1667 fold, the “Solubility Enhancement (fold)” value ([2]; 5% HP-β-CD/Phosphate buffer/pH 7) was 144 fold and the solubility ([2]; pH 7, aqueous buffer, read-out: intrinsic solubility) was ~0.007 mg/mL. It also gave a solubility ([3]; pH 4.732, aqueous with cosolvent or surfactant or cyclodextrin, pH adjustment agent 1N Glucoronic acid, final pH 4.732, read-out: 1H-indole-1-carboxamide Solubility) of 36 mg/mL (≈ 80.8 mM), a solubility ([3]; pH 4.872, aqueous with cosolvent or surfactant or cyclodextrin, pH adjustment agent 1N Citric acid, final pH 4.872, read-out: 1H-indole-1-carboxamide Solubility) of 6.88 mg/mL (≈ 15.4 mM) and a solubility ([3]; pH 4.887, aqueous with cosolvent or surfactant or cyclodextrin, pH adjustment agent 1N Acetic acid, final pH 4.887, read-out: 1H-indole-1-carboxamide Solubility) of 30.3 mg/mL (≈ 68 mM). For the same compound, the solubility ([3]; pH 4.887, aqueous with cosolvent or surfactant or cyclodextrin, pH adjustment agent 1N Hydrochloric acid, final pH 4.887, read-out: 1H-indole-1-carboxamide Solubility) was 15.5 mg/mL (≈ 34.7 mM), the solubility ([3]; pH 4.902, aqueous with cosolvent or surfactant or cyclodextrin, pH adjustment agent 1N Methanesulfonic acid, final pH 4.902, read-out: 1H-indole-1-carboxamide Solubility) was 32.6 mg/mL (≈ 73.1 mM) and the solubility ([3]; pH 4.955, aqueous with cosolvent or surfactant or cyclodextrin, pH adjustment agent 1N Lactic acid, final pH 4.955, read-out: 1H-indole-1-carboxamide Solubility) was 33 mg/mL (≈ 74.2 mM). It also gave a solubility ([3]; pH 4.973, aqueous with cosolvent or surfactant or cyclodextrin, pH adjustment agent 1N Sulfuric acid, final pH 4.973, read-out: 1H-indole-1-carboxamide Solubility) of 35.6 mg/mL (≈ 79.9 mM), a solubility ([3]; pH 5.014, aqueous with cosolvent or surfactant or cyclodextrin, pH adjustment agent 1N Phosphoric acid, final pH 5.014, read-out: 1H-indole-1-carboxamide Solubility) of 25.4 mg/mL (≈ 57.1 mM) and a Tmax ([4]; RPE/choroid) of 18 to 48 h. For the same compound, the Tmax ([4]; all ocular tissues and plasma except RPE/choroid) was 0.5 to 3 h, the plasma accumulation [5] was “no evidence of plasma accumulation” and the “AUClast Mean” value ([5]; Cornea OD (dosed eye), Tlast = 96 h) was 317000 ng·h/g. For the same compound, the “AUClast Mean” value ([5]; Cornea OS (undosed eye), Tlast = 96 h) was 1260 ng·h/g, the Cmax [5, 8] was 6410 ng/g and the Tmax [5, 8] was 0.5 h. The Cmax [5, 9] was 32300 ng/g, the Tmax [5, 9] was 1 h and the Cmax [5, 10] was 47.5 ng/g. The Tmax [5, 10] was 0 h, the Tmax ([5]; NZW×NZR (pigmented), rabbit, topical or ocular, Plasma) was 0.5 h and the Cmax ([5]; NZW×NZR (pigmented), rabbit, topical, Plasma) was 1.85 ng/mL. For the same compound, the AUC(0-t) ([5]; NZW×NZR (pigmented), rabbit, topical, Plasma, Tlast = 96 h, read-out: AUClast Mean) was 5.12 ng·h/mL, the “AUClast Mean” value ([5]; RPE/Choroid OD (dosed eye), Tlast = 96 h) was 453000 ng·h/g and the “AUClast Mean” value ([5]; RPE/Choroid OS (undosed eye), Tlast = 96 h) was 293000 ng·h/g. For the same compound, the “local penetration in the dosed eyes as share of the total AUClast” value ([5]; RPE/choroid) was 37.1%, the “AUClast Mean” value ([5]; Retina OD (dosed eye), Tlast = 96 h) was 8400 ng·h/g and the “AUClast Mean” value ([5]; Retina OS (undosed eye), Tlast = 96 h) was 3640 ng·h/g. It also gave a Cmax [5, 11] of 3950 ng/g, a Tmax [5, 11] of 18 h and a Cmax [5, 12] of 122 ng/g. For the same compound, the Tmax [5, 12] was 18 h, the Cmax [5, 13] was 67.2 ng/g and the Tmax [5, 13] was 18 h. For the same compound, the “local penetration in the dosed eyes as share of the total AUClast” value ([5]; retina) was 56.7%, the “Zeta Potential” value ([6]; Additive: 10 mM NaCl) was 0.6 mV and the “Zeta Potential” value ([6]; Additive: 0.1% Pluronic F127) was −1.09 mV. The “Zeta Potential” value ([6]; Additive: 0.5% Sodium CMC 7LF PH) was −40.3 mV, the “Zeta Potential” value ([6]; Additive: 1% Pluronic F127) was −0.962 mV and the “Zeta Potential” value ([6]; Additive: 1% Polyvinyl phosphoric acid (PVPA)) was −0.835 mV. The “Zeta Potential” value ([6]; Additive: 1% Povidone (PVP 29/32)) was 0 mV, the “Zeta Potential” value ([6]; Additive: 1% Sodium CMC 7LF PH) was −47.8 mV and the “Zeta Potential” value ([6]; Additive: 1% Vitamin E TPGS) was −1.77 mV. For the same compound, the “Zeta Potential” value ([6]; Additive: None) was −2.58 mV, the “1H-indole-1-carboxamide Solubility” value ([7]; 1% HPβCD in Acetate, pH 4.584, equilibrium solubility at day 3) was 7.28 mg/mL and the solubility at 3 day ([7]; 1% HPβCD in acetate, pH 4.584, aqueous with cosolvent or surfactant or cyclodextrin, 1% HPβCD in Acetate, pH 4.584, equilibrium solubility at day 3) was 7.5 mg/mL (≈ 16.8 mM). For the same compound, the solubility at 3 day ([7]; 1% HPγCD in acetate, pH 4.607, aqueous with cosolvent or surfactant or cyclodextrin, 1% HPγCD in Acetate, pH 4.607, equilibrium solubility at day 3) was 9.28 mg/mL (≈ 20.8 mM), the “1H-indole-1-carboxamide Solubility” value ([7]; 2.5% HPβCD in Acetate, pH 4.606, equilibrium solubility at day 3) was 12.45 mg/mL and the solubility at 3 day ([7]; 2.5% HPβCD in acetate, pH 4.606, aqueous with cosolvent or surfactant or cyclodextrin, 2.5% HPβCD in Acetate, pH 4.606, equilibrium solubility at day 3) was 12.5 mg/mL (≈ 28 mM). The “1H-indole-1-carboxamide Solubility” value ([7]; 5% HPβCD in Acetate, pH 4.670, equilibrium solubility at day 3) was 15.93 mg/mL, the solubility at 3 day ([7]; 5% HPβCD in acetate, pH 4.67, aqueous with cosolvent or surfactant or cyclodextrin, 5% HPβCD in Acetate, pH 4.670, equilibrium solubility at day 3) was 19.6 mg/mL (≈ 44 mM) and the “1H-indole-1-carboxamide Solubility” value ([7]; 8% HPβCD in Acetate, pH 4.530, equilibrium solubility at day 3) was 25.67 mg/mL. The solubility at 3 day ([7]; 8% HPβCD in acetate, pH 4.53, aqueous with cosolvent or surfactant or cyclodextrin, 8% HPβCD in Acetate, pH 4.530, equilibrium solubility at day 3) was 25.7 mg/mL (≈ 57.6 mM), the solubility at 3 day ([7]; 8% HPγCD in acetate, pH 4.58, aqueous with cosolvent or surfactant or cyclodextrin, 8% HPγCD in Acetate, pH 4.580, equilibrium solubility at day 3) was 30.7 mg/mL (≈ 68.8 mM) and the “1H-indole-1-carboxamide Solubility” value ([7]; 10% HPβCD in Acetate, pH 4.610, equilibrium solubility at day 3) was 30.57 mg/mL. For the same compound, the solubility at 3 day ([7]; 10% HPβCD in acetate, pH 4.61, aqueous with cosolvent or surfactant or cyclodextrin, 10% HPβCD in Acetate, pH 4.610, equilibrium solubility at day 3) was 30.6 mg/mL (≈ 68.7 mM) and the “1H-indole-1-carboxamide Solubility” value ([7]; 10% HPγCD in Acetate, pH 4.668, equilibrium solubility at day 3) was 34.56 mg/mL.
